{
  "source": "the supplement of paper PMC10307832",
  "experiment_in_all_cases": "relative viability (nuclei count vs DMSO), 5 days (fraction); higher = more cells survive",
  "key": {"NCI-H1755": {"system": "NCI-H1755", "procedure,_shortened": "(§1)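 Lung cancer cell lines, seeded in 1536-well plates, were treated the following day by pin tool with a single drug or with five library-drug doses (not always all listed) in √10 steps on top of a fixed anchor-drug dose. Cells were fixed and nuclei stained in one step after 5 days, and nuclei were counted. Relative viability is the nuclei count for treated wells divided by that for vehicle wells, reported as medians of duplicate plates.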"}, "H3255": {"system": "H3255", "procedure,_shortened": "as §1"}, "NCI-H441": {"system": "NCI-H441", "procedure,_shortened": "as §1"}, "NCI-H23": {"system": "NCI-H23", "procedure,_shortened": "as §1"}, "SW 900": {"system": "SW 900", "procedure,_shortened": "as §1"}, "NCI-H1792": {"system": "NCI-H1792", "procedure,_shortened": "as §1"}, "NCI-H520": {"system": "NCI-H520", "procedure,_shortened": "as §1"}, "NCI-H1563": {"system": "NCI-H1563", "procedure,_shortened": "as §1"}, "COR-L 105": {"system": "COR-L 105", "procedure,_shortened": "as §1"}, "PC-3 [JPC-3]": {"system": "PC-3 [JPC-3]", "procedure,_shortened": "as §1"}, "LOU-NH91": {"system": "LOU-NH91", "procedure,_shortened": "as §1"}, "NCI-H596": {"system": "NCI-H596", "procedure,_shortened": "as §1"}, "NCI-H2170": {"system": "NCI-H2170", "procedure,_shortened": "as §1"}, "HCC-366": {"system": "HCC-366", "procedure,_shortened": "as §1"}, "NCI-H1734": {"system": "NCI-H1734", "procedure,_shortened": "as §1"}, "EMC-BAC-2": {"system": "EMC-BAC-2", "procedure,_shortened": "as §1"}, "SK-MES-1": {"system": "SK-MES-1", "procedure,_shortened": "as §1"}, "ChaGo-K-1": {"system": "ChaGo-K-1", "procedure,_shortened": "as §1"}, "NCI-H1975": {"system": "NCI-H1975", "procedure,_shortened": "as §1"}, "NCI-H1666": {"system": "NCI-H1666", "procedure,_shortened": "as §1"}, "A-427": {"system": "A-427", "procedure,_shortened": "as §1"}, "LK-2": {"system": "LK-2", "procedure,_shortened": "as §1"}, "EKVX": {"system": "EKVX", "procedure,_shortened": "as §1"}, "NCI-H1944": {"system": "NCI-H1944", "procedure,_shortened": "as §1"}},
  "data": [
    {"smiles": "CC(C)Oc1cc(Nc2nc(N[C@@H](C)c3ccc(F)cn3)ncc2Cl)n[nH]1", "note": "[AZ23] + COc1cccc2cc(-c3nc([C@H]4CC[C@H](C(=O)O)CC4)n4ncnc(N)c34)[nH]c12 [OSI-027] (partner 0.5 µM)", "values": [
      {"measurement": "relative viability", "setting": "NCI-H1755; first compound 0.01 µM", "value": 0.639},
      {"measurement": "relative viability", "setting": "NCI-H1755; first compound 0.03162 µM", "value": 0.809},
      {"measurement": "relative viability", "setting": "NCI-H1755; first compound 0.3162 µM", "value": 0.771},
      {"measurement": "relative viability", "setting": "H3255; first compound 0.01 µM", "value": 0.55},
      {"measurement": "relative viability", "setting": "H3255; first compound 0.03162 µM", "value": 0.618},
      {"measurement": "relative viability", "setting": "H3255; first compound 0.3162 µM", "value": 0.635},
      {"measurement": "relative viability", "setting": "NCI-H441; first compound 0.01 µM", "value": 0.707},
      {"measurement": "relative viability", "setting": "NCI-H441; first compound 0.03162 µM", "value": 0.729},
      {"measurement": "relative viability", "setting": "NCI-H441; first compound 0.3162 µM", "value": 0.566},
      {"measurement": "relative viability", "setting": "NCI-H23; first compound 0.03162 µM", "value": 0.58},
      {"measurement": "relative viability", "setting": "NCI-H23; first compound 0.3162 µM", "value": 0.599},
      {"measurement": "relative viability", "setting": "SW 900; first compound 0.01 µM", "value": 0.512},
      {"measurement": "relative viability", "setting": "SW 900; first compound 0.03162 µM", "value": 0.663},
      {"measurement": "relative viability", "setting": "SW 900; first compound 0.3162 µM", "value": 0.579},
      {"measurement": "relative viability", "setting": "NCI-H1792; first compound 0.01 µM", "value": 0.752},
      {"measurement": "relative viability", "setting": "NCI-H1792; first compound 0.03162 µM", "value": 0.782},
      {"measurement": "relative viability", "setting": "NCI-H1792; first compound 0.3162 µM", "value": 0.841},
      {"measurement": "relative viability", "setting": "NCI-H520; first compound 0.01 µM", "value": 0.276},
      {"measurement": "relative viability", "setting": "NCI-H520; first compound 0.03162 µM", "value": 0.281},
      {"measurement": "relative viability", "setting": "NCI-H520; first compound 0.3162 µM", "value": 0.278},
      {"measurement": "relative viability", "setting": "NCI-H1563; first compound 0.01 µM", "value": 0.768},
      {"measurement": "relative viability", "setting": "NCI-H1563; first compound 0.03162 µM", "value": 0.775},
      {"measurement": "relative viability", "setting": "NCI-H1563; first compound 0.3162 µM", "value": 0.775},
      {"measurement": "relative viability", "setting": "COR-L 105; first compound 0.01 µM", "value": 0.657},
      {"measurement": "relative viability", "setting": "COR-L 105; first compound 0.03162 µM", "value": 0.849},
      {"measurement": "relative viability", "setting": "COR-L 105; first compound 0.3162 µM", "value": 0.809},
      {"measurement": "relative viability", "setting": "PC-3 [JPC-3]; first compound 0.01 µM", "value": 0.857},
      {"measurement": "relative viability", "setting": "PC-3 [JPC-3]; first compound 0.03162 µM", "value": 0.71},
      {"measurement": "relative viability", "setting": "PC-3 [JPC-3]; first compound 0.3162 µM", "value": 0.742},
      {"measurement": "relative viability", "setting": "LOU-NH91; first compound 0.01 µM", "value": 0.692},
      {"measurement": "relative viability", "setting": "LOU-NH91; first compound 0.03162 µM", "value": 0.753},
      {"measurement": "relative viability", "setting": "LOU-NH91; first compound 0.3162 µM", "value": 0.704},
      {"measurement": "relative viability", "setting": "NCI-H596; first compound 0.01 µM", "value": 0.711},
      {"measurement": "relative viability", "setting": "NCI-H596; first compound 0.03162 µM", "value": 0.834},
      {"measurement": "relative viability", "setting": "NCI-H596; first compound 0.3162 µM", "value": 0.671},
      {"measurement": "relative viability", "setting": "NCI-H2170; first compound 0.01 µM", "value": 0.664},
      {"measurement": "relative viability", "setting": "NCI-H2170; first compound 0.03162 µM", "value": 0.722},
      {"measurement": "relative viability", "setting": "NCI-H2170; first compound 0.3162 µM", "value": 0.726},
      {"measurement": "relative viability", "setting": "HCC-366; first compound 0.01 µM", "value": 1.06},
      {"measurement": "relative viability", "setting": "HCC-366; first compound 0.03162 µM", "value": 0.872},
      {"measurement": "relative viability", "setting": "HCC-366; first compound 0.3162 µM", "value": 1.05},
      {"measurement": "relative viability", "setting": "NCI-H1734; first compound 0.01 µM", "value": 0.628},
      {"measurement": "relative viability", "setting": "NCI-H1734; first compound 0.03162 µM", "value": 0.62},
      {"measurement": "relative viability", "setting": "NCI-H1734; first compound 0.3162 µM", "value": 0.588},
      {"measurement": "relative viability", "setting": "EMC-BAC-2; first compound 0.01 µM", "value": 0.373},
      {"measurement": "relative viability", "setting": "EMC-BAC-2; first compound 0.03162 µM", "value": 0.42},
      {"measurement": "relative viability", "setting": "EMC-BAC-2; first compound 0.3162 µM", "value": 0.365},
      {"measurement": "relative viability", "setting": "SK-MES-1; first compound 0.03162 µM", "value": 0.711},
      {"measurement": "relative viability", "setting": "SK-MES-1; first compound 0.3162 µM", "value": 0.745},
      {"measurement": "relative viability", "setting": "ChaGo-K-1; first compound 0.01 µM", "value": 0.641},
      {"measurement": "relative viability", "setting": "ChaGo-K-1; first compound 0.03162 µM", "value": 0.593},
      {"measurement": "relative viability", "setting": "ChaGo-K-1; first compound 0.3162 µM", "value": 0.695},
      {"measurement": "relative viability", "setting": "NCI-H1975; first compound 0.01 µM", "value": 0.874},
      {"measurement": "relative viability", "setting": "NCI-H1975; first compound 0.03162 µM", "value": 0.812},
      {"measurement": "relative viability", "setting": "NCI-H1975; first compound 0.3162 µM", "value": 0.727},
      {"measurement": "relative viability", "setting": "NCI-H1666; first compound 0.01 µM", "value": 0.847},
      {"measurement": "relative viability", "setting": "NCI-H1666; first compound 0.03162 µM", "value": 0.849},
      {"measurement": "relative viability", "setting": "NCI-H1666; first compound 0.3162 µM", "value": 0.823},
      {"measurement": "relative viability", "setting": "A-427; first compound 0.01 µM", "value": 0.37},
      {"measurement": "relative viability", "setting": "A-427; first compound 0.03162 µM", "value": 0.448},
      {"measurement": "relative viability", "setting": "A-427; first compound 0.3162 µM", "value": 0.34},
      {"measurement": "relative viability", "setting": "LK-2; first compound 0.01 µM", "value": 0.176},
      {"measurement": "relative viability", "setting": "LK-2; first compound 0.03162 µM", "value": 0.198},
      {"measurement": "relative viability", "setting": "LK-2; first compound 0.3162 µM", "value": 0.183},
      {"measurement": "relative viability", "setting": "EKVX; first compound 0.01 µM", "value": 0.801},
      {"measurement": "relative viability", "setting": "EKVX; first compound 0.03162 µM", "value": 0.636},
      {"measurement": "relative viability", "setting": "EKVX; first compound 0.3162 µM", "value": 0.66},
      {"measurement": "relative viability", "setting": "NCI-H1944; first compound 0.01 µM", "value": 0.401},
      {"measurement": "relative viability", "setting": "NCI-H1944; first compound 0.03162 µM", "value": 0.456},
      {"measurement": "relative viability", "setting": "NCI-H1944; first compound 0.3162 µM", "value": 0.498}
    ]}
  ]
}
